Data taken from patent US20100152108A1, “METHODS AND COMBINATION THERAPIES FOR TREATING ALZHEIMER'S DISEASE” (priority 2006, published 2010).
Values joined by “and” are separate entries in the source; they are usually repeats but may differ in a detail not shown here. Equal entries are not always repeated. Where two headings read alike, the source gives them in different places.

What was measured:
[1] = system: scopolamine-treated rats; assay: Two-trial object recognition paradigm in scopolamine-treated rats; type: in vivo, Sprague-Dawley rats; conditions: for Memory Performance (N-F, difference in time spent with the novel object and familiar object): scopolamine 0.3 mg/kg i.p., mean ± SEM
Procedure: The two-trial object recognition paradigm developed by Ennaceur and Delacour in the rat was used as a model of episodic memory.
Male Sprague-Dawley rats between six and seven weeks old, weighing between 220-300 grams were obtained from Centre d′Elevage (Rue Janvier, B.P. 55, Le Genest-Saint-Isle 53940, France). The animals were housed in groups of 2 to 4 in polypropylene cages (with a floor area of 1032 cm^2) under standard conditions: at room temperature (22±2° C.), under a 12 hour light/12 hour dark cycle, with food and water provided ad libitum. Animals were permitted to acclimate to environmental conditions for at least 5 days before therapy begins, and were numbered on their tails with indelible marker.
The experimental arena was a square wooden box (60 cm×60 cm×40 cm) painted dark blue, with 15 cm×15 cm black squares under a clear plexiglass floor. The arena and objects placed inside the arena were cleaned with water between each trial to eliminate any odor trails left by rats. The arena was placed in a dark room illuminated only by halogen lamps directed towards the ceiling in order to produce a uniformly dim light in the box of approximately 60 lux. The day before testing, animals were allowed to freely explore the experimental arena for three minutes in the presence of two objects (habituation). Animals to be tested were placed in the experimental room at least 30 minutes before testing.
On the day of the experiment, animals were submitted to two trials separated by an interval of 120 minutes. During the first, or acquisition, trial (T1), rats were placed in the arena, which was prepared with two identical objects. The time required for each animal to complete 15 seconds of object exploration was determined, with a cut-off time of four minutes. […] Rats were placed back in the arena for three minutes, and exploration of both objects was determined. Locomotor activity of rats (number of times rats cross grid lines visible under the clear plexiglass floor) was scored for during T1 and T2. […]
The following parameters were measured: (1) time required to achieve 15 seconds of object exploration during T1; (2) locomotor activity during T1 (number of crossed lines); (3) time spent in active exploration of the familiar object during T2 (TFamiliar); (4) time spent in active exploration of the novel object during T2 (TNovel); and (5) locomotor activity during T2 (number of crossed lines). The difference between time spent in active exploration of the novel object during T2 and time spent in active exploration of the familiar object during T2 (ΔTNovel−TFamiliar) was evaluated. The recognition index [(TNovel−TFamiliar/(TNovel+TFamiliar)] was derived, and the percentage of animals with TNovel−TFamiliar>5 seconds was assessed. […]

[2] = system: patients with mild to moderate Alzheimer's disease
Procedure: Patients were evaluated with the ADAS-cog (primary endpoint), CIBIC-plus, MMSE, NPI and ADL at baseline, week 12 and week 26. The Alzheimer's Disease Assessment Scale Cognitive Subscale (ADAS-cog) score assesses memory and cognition over time. The Mini Mental State Exam (MMSE) also assesses memory and cognition. The Alzheimer's Disease Cooperative Study-Clinical Global Impression of Change (ADCS-CGIC, also called CIBIC-plus) measures the patient's global status over time. It takes into account memory, cognition, behavior and motor disturbance. The Neuropsychiatric Inventory (NPI) measures the patients' behavior and psychiatric disturbance in 12 domains including delusions, hallucinations, agitation/aggression, depression/dysphoria, anxiety, elation/euphoria, apathy/indifference, disinhibitions, irritability/lability, motor disturbance, nighttime behaviors, and appetite/eating. An ADL inventory assesses the impact of cognitive impairment on activities of daily living. […] All subjects enrolled were included in the intention-to-treat analysis. Thus, the analysis includes all randomized patients, even those who discontinued the study prior to study completion.

[3] = system: amyloid beta 42 (Aβ42); conditions: cultured human cells and animal models; cited from earlier work
[4] = system: human neuroblastoma SK-N-SH; conditions: cited from earlier work
[5] = system: release of acetylcholine from the cortex; conditions: microdialysis; cited from earlier work
[6] = week 26, dimebon 20 mg orally three times a day vs placebo

For Cc1ccc2c(c1)c1c(n2CCc2ccc(C)nc2)CCN(C)C1.Cl.Cl [Dimebon, 2,8-dimethyl-5-(2-(6-methyl-3-pyridyl)-ethyl)-2,3,4,5-tetrahydro-1H-pyrido(4,3-b)indol dihydrochloride], the “effect at doses below the maximally effective dose, tested individually” value ([1]; dimebon 2.5 mg/kg oral, donepezil 0.03 mg/kg intraperitoneal) was “only partially effective”, the maximally effective dose ([1]; oral) was 5 mg/kg and the “Memory Performance (N-F, difference in time spent with the novel object and familiar object)” value ([1]; vehicle i.p. + Dimebon 2.5 mg/kg p.o.) was 2.57 ± 0.95 s. For the same compound, the “Memory Performance (N-F, difference in time spent with the novel object and familiar object)” value ([1]; vehicle i.p. + Dimebon 5 mg/kg p.o.) was 5.00 ± 2.09 s, the “all other gastrointestinal side effects combined” value ([2]; in vivo) was less than 3% and the “patients who experienced serious adverse events” value ([2]; in vivo) was 3.4%. For the same compound, the tolerability ([2]; in vivo) was “well-tolerated”, the “patients who experienced serious adverse events” value ([2]; in vivo, po) was 2.2% and the “most common adverse event: dry mouth” value ([2]; in vivo, dihydrochloride) was 18% and 13.5%. For the same compound, the “ADL mean drug-placebo difference” value [2, 6] was 3.35 units, the “CIBIC-plus mean drug-placebo difference” value [2, 6] was 0.61 units and the “MMSE mean drug-placebo difference” value [2, 6] was 2.24 units. For the same compound, the “NPI mean drug-placebo difference” value [2, 6] was 3.57 units, the “ADAS-cog mean drug-placebo difference” value ([2]; week 26, dimebon 20 mg orally three times a day vs placebo, intention-to-treat) was 4.0 units and the “change in the 5 endpoints, mean baseline scores compared with week 26 scores” value ([2]; week 26 vs baseline, ADAS-cog, CIBIC-plus, MMSE, NPI, ADL) was “significant improvements in all 5 endpoints”. The “ADAS-cog mean drug-placebo difference” value ([2]; week 52, dimebon vs placebo) was 6.9 units, the “ADL mean drug-placebo difference” value ([2]; week 52, dimebon vs placebo) was 5.2 units and the “CIBIC-plus mean drug-placebo difference” value ([2]; week 52, dimebon vs placebo) was 0.80 units. The “MMSE mean drug-placebo difference” value ([2]; week 52, dimebon vs placebo) was 2.3 units, the “NPI mean drug-placebo difference” value ([2]; week 52, dimebon vs placebo) was 3.5 units and the “change in the 5 endpoints, mean baseline scores compared with week 52 scores” value ([2]; week 52 vs baseline, ADAS-cog, CIBIC-plus, MMSE, NPI, ADL) was “improvements in all 5 endpoints”.
In the case of C[C@@H](C(=O)O)c1ccc(-c2ccccc2)c(F)c1 [Flurizan], the “levels of amyloid beta 42 (Aβ42)” value [3] is listed as “reduces levels”.
For C#CCN[C@@H]1CCc2ccc(OC(=O)N(C)CC)cc21 [Ladostigil], the “apoptosis-induced levels of holo-APP protein” value [4] is listed as “reduces apoptosis-induced levels of holo-APP protein”, the “phospho PKC and release of the nonamyloidogenic amyloid protein” value [4] is listed as “increases phospho PKC and the release of the nonamyloidogenic amyloid protein” and the apoptotic cell death ([4]; in response to long term culture) is listed as “reduces apoptotic cell death”.
In the case of CN[C@@H](C)C/C=C/c1cncc(OC(C)C)c1 [TC-1734], the “release of acetylcholine from the cortex” value [5] is given as “enhances the release of acetylcholine”.
